Article PMC12693167, “Design, Synthesis and Anticancer Activity of 6-Substituted-1-(3,4,5-trimethoxyphenyl)-1H-indole Against Tubulin Polymerisation” (Molecules, 2025)
Entries after “also recorded” stand apart in the source; their conditions may differ.

Key:
[1] = tested on: MCF-7 cells; assay: Annexin V-FITC/PI apoptosis assay; assay type: cell-based, human; details: 48 h
Experimental: Given that mitotic arrest induced by tubulin polymerization inhibitors is commonly associated with apoptosis, an Annexin V-FITC/propidium iodide (PI) assay was conducted to evaluate the pro-apoptotic effect of compound 3g in MCF-7 cells.
MCF-7 cells were seeded into 6-well plates and cultured overnight. After treating with compound 3g (0.1, 1, and 10 μM) for 48 h, cells were harvested and suspended in binding buffer containing annexin V-FITC (0.5 mg/mL) and PI (0.5 mg/mL). After that, samples were incubated for 20 min in the dark and analyzed with a flow cytometer.
Figure 7 Effects of compound 3g on apoptosis in MCF-7 cells. (A) Apoptosis induction by compound 3g in MCF-7 cells. Cells were treated with increasing concentrations of 3g (0.1, 1, and 10 μM) for 48 h, followed by Annexin V-FITC/PI staining and flow cytometric analysis. Cell populations were categorized as necrotic (upper left quadrant), late apoptotic (upper right), viable (lower left), and early apoptotic (lower right). (B) Quantification of apoptotic populations. Bar graphs show the percentage of cells in each apoptotic stage after treatment. Data are presented as mean ± SD from three independent experiments. Statistical significance was determined by one-way ANOVA followed by Tukey’s post hoc test. TEXT PRINTED IN THE PICTURE: (A) Control: Q1(20.37%); Q2(15.42%); Q4(59.96%); Q3(4.25%) | (A) no label printed: Q1(8.46%) (0.1 μM); Q2(23.10%) (0.1 μM); Q4(59.68%) (0.1 μM); Q3(8.75%) (0.1 μM); Q1(8.98%) (1 μM); Q2(29.15%) (1 μM); Q4(50.67%) (1 μM); Q3(11.19%) (1 μM); Q1-UL(12.21%) (10 μM); Q1-UR(40.63%) (10 μM); Q1-LL(34.55%) (10 μM); Q1-LR(12.61%) (10 μM) DOUBTS OF THE COPYIST ABOUT THIS PICTURE: The picture prints no label for the treated substance; only the concentrations 0.1 μM, 1 μM and 10 μM are printed over the plots, so they are given as conditions. / Control is untreated cells rather than a substance; it is listed because quadrant percentages are printed with that name. / The quadrant print is very small, so 3, 5, 6, 8 and 9 cannot be told apart with certainty in any of these values. / Control: Q1 20.37%, Q2 15.42%, Q4 59.96%, Q3 4.25% are best readings. / 0.1 μM: Q1 8.46%, Q2 23.10%, Q4 59.68%, Q3 8.75% are best readings. / 1 μM: Q1 8.98%, Q2 29.15%, Q4 50.67%, Q3 11.19% are best readings. / 10 μM: Q1-UL 12.21%, Q1-UR 40.63%, Q1-LL 34.55%, Q1-LR 12.61% are best readings.

[2] = In vivo tolerability (body weight, H&E histopathology of liver and kidney); parameters: species or system mouse
Experimental: All animal procedures were approved by the Animal Ethics Committee of the Naval Medical University (permit number: EC11-055). Male BALB/c mice (6–8 weeks old, average initial body weight approximately 18–20 g) were purchased from Shanghai SLAC Laboratory Animal Co., Ltd. The inhibitory effect of compound 3g was evaluated using a subcutaneous B16-F10 melanoma xenograft model. Log-phase B16F10 cells were suspended in PBS and subcutaneously injected into mice (200 μL containing 8 × 10^5 cells per mouse) to establish tumors. Mice were randomly divided into control and treatment groups (n = 8). Compound 3g and paclitaxel were dissolved in a vehicle consisting of DMSO:PEG:Tween-80:saline (v/v/v/v, 5:35:10:50) to the desired concentrations. Treatments (paclitaxel, 10 mg/kg; compound 3g, 20 and 50 mg/kg, doses calculated on a body-weight basis) and vehicle were administered once daily via intraperitoneal injection for 14 consecutive days. Body weights were monitored throughout the study to assess acute toxicity. Tumor volumes were measured using calipers and calculated with the formula: a × b^2 × 0.5, where a and b represent the larger and smaller tumor diameters, respectively. On day 14, mice were sacrificed and tumors were excised and weighed. […] Major organs (liver and kidneys) were collected, fixed in 4% paraformaldehyde, processed into paraffin sections, stained with hematoxylin and eosin (H&E), and examined microscopically.
Figure 8 Compound 3g inhibits melanoma tumor growth in vivo. Murine melanoma B16-F10 xenograft tumors were established in mice, which were then administered vehicle, PTX (10 mg/kg per day), compound 3g (20 mg/kg per day), and compound 3g (50 mg/kg per day) for 14 days. The mice were sacrificed, and the tumors were weighed. (A) Images of tumors from mice at 14 days after initiation of treatment. (B) Body weight changes in mice during treatment. (C) Weight of the excised tumors of each group. * p < 0.05, and *** p < 0.001 vs. control group. (D) Tumor volume changes in mice during treatment. […]

[3] = tested on: A549 cells; assay: CCK-8 antiproliferative assay, A549; assay type: cell-based; details: Homo sapiens, cell viability (CCK-8), 48 h
Experimental: To evaluate the anticancer potential of the synthesized compounds, a panel of six human and murine cancer cell lines representing different tissue origins was selected, including MCF-7 (human breast adenocarcinoma), MDA-MB-231 (human triple-negative breast cancer), A549 (human non-small cell lung cancer), HeLa (human cervical cancer), A375 (human melanoma), and B16-F10 (murine melanoma) (Table 2). […] DMSO was used as the vehicle control, and all experiments were performed in triplicate to ensure reproducibility.
Human breast cancer cells (MCF-7), human lung cancer cells (A549), human cervical cancer cells (HeLa), human triple-negative breast cancer cells (MDA-MB-231), and human malignant melanoma cells (A375) were cultured in DMEM. Mouse melanoma cells (B16F10) were maintained in RPMI-1640 medium. All media were supplemented with 10% fetal bovine serum and 1% penicillin-streptomycin (Life Technologies, Carlsbad, CA, USA) and maintained at 37 °C in a humidified atmosphere with 5% CO2.
The cytotoxicity of the test compounds was evaluated against MCF-7, A549, HeLa, MDA-MB-231, A375, and B16F10 using the CCK-8 assay. Cells were seeded into 96-well plates at a density of 5000 cells/well. After removing the medium, 100 μL of medium with 0.1% DMSO containing test compounds at different concentrations was added to each well and incubated at 37 °C for another 48 h. The CCK-8 solution was added and incubated for another 1 h, and then, the absorbance was detected with a microplate reader at a wavelength of 450 nm. The IC50 values were calculated by nonlinear regression analysis using GraphPad Prism 8.0.2. All the experiments were repeated at least three times.

[4] = 20 and 50 mg/kg i.p. daily, 14 days

In the case of `COc1cc(-n2ccc3ccc(-c4ccc(C)c(C#N)c4)cc32)cc(OC)c1OC` [3g, 2-methyl-5-(1-(3,4,5-trimethoxyphenyl)-1H-indol-6-yl)benzonitrile], the apoptosis induction ([1]; 10 μM) is reported as “significantly inducing apoptosis”, the apoptotic cell populations ([1]; 0.1, 1 and 10 μM) is reported as “dose-dependent increase” and the viability at 0.1 µM ([1]; Homo sapiens, MCF7, 0.1 μM, read-out: viable cells (lower left quadrant, Q4)) is reported as 59.7%. The viability at 1 µM ([1]; Homo sapiens, MCF7, 1 μM, read-out: viable cells (lower left quadrant, Q4)) was 50.7%, the viability at 10 µM ([1]; Homo sapiens, MCF7, 10 μM, read-out: viable cells (lower left quadrant, Q1-LL)) was 34.5% and the systemic toxicity ([2]; 20 mg/kg and 50 mg/kg) was “without evident systemic toxicity”. The body weight change [2, 4] was “did not induce significant body weight loss”, the “histopathology of liver and kidneys (H&E)” value [2, 4] was “no overt toxicity; also recorded: did not reveal obvious morphological abnormalities” and the IC50 [3] was 6.3 ± 0.3 µM.
